Assay results published in patent publication US20250257034A1, “INDOLE DERIVATIVES AS SEROTONERGIC AGENTS USEFUL FOR THE TREATMENT OF DISORDERS RELATED THERETO” (priority 2023, published 2025).

Tests used:
[1] = Rat liver microsomes stability; type: in vitro ADME; conditions: rat liver microsomes; for half-life at 2 μM / CLint scaled at 2 μM / microsomal CLint at 2 μM: male, pooled liver microsomes; for half-life at 2 μM / microsomal CLint at 2 μM: 2 μM compound, 0.5 mg/mL; for CLint scaled at 2 μM: read-out: Scaled-up CLint; for microsomal CLint at 2 μM: rat, read-out: CLint (μL/min/mg protein)
Method: (§1) The objective of this study was to estimate in vitro metabolic stability of exemplary compounds of Formula (I) or a pharmaceutically acceptable salt, solvate, and/or prodrug thereof in pooled human, male rat, and male mouse liver microsomes. The concentrations of compounds in reaction systems were evaluated by LC-MS/MS for estimating the stability in pooled human, male rat, and male mouse liver microsomes. The in vitro intrinsic clearances of test compounds were determined as well.
(§2) A master solution in the “Incubation Plate” containing phosphate buffer, ultra-pure H2O, MgCl2 solution and liver microsomes was made according to Table 33. The mixture was pre-warmed at 37° C. water bath for 5 minutes.
(§3) 40 μL of 10 mM nicotinamide adenine dinucleotide phosphate (NADPH) solution was added to each well. The final concentration of NADPH was 1 mM. The negative control samples were prepared by replacing NADPH with 40 μL of ultra-pure H2O. Samples were prepared in duplicate. Negative controls were prepared in singlet.
(§4) The reaction was started with the addition of 4 μL of 200 μM exemplary test compounds of the disclosure or control compounds to each master solution to get the final concentration of 2 μM. This study was performed in duplicate.
(§5) Aliquots of 50 μL were taken from the reaction solution at 0, 15, 30, 45, and 60 minutes. The reaction solutions were stopped by the addition of 4 volumes of cold methanol with IS (100 nM alprazolam, 200 nM imipramine, 200 nM labet alol and 2 μM ketoprofen). Samples were centrifuged at 3,220 g for 40 minutes. Aliquot of 90 μL of the supernatant was mixed with 90 μL of ultra-pure H2O and then was used for LC-MS/MS analysis.
(§6) LC/MS analysis was performed for all samples from this study using a Shimadzu liquid chromatograph separation system equipped with degasser DGU-20A5R; solvent delivery unit LC-30AD; system controller SIL-30AC; column oven CTO-30A; CTC Analytics HTC PAL System. Mass spectrometric analysis was performed using a Triple Quad™ 5500 instrument.
(§7) All calculations were carried out using Microsoft Excel. Peak area ratios of test compound to internal standard (listed in the below table) were determined from extracted ion chromatograms.
(§8) All calculations were carried out using Microsoft Excel. Peak areas were determined from extracted ion chromatograms. The slope value, k, was determined by linear regression of the natural logarithm of the remaining percentage of the parent drug vs. incubation time curve.
(§9) The in vitro half-life (in vitro t1/2) was determined from the slope value:
(§10) Conversion of the in vitro t1/2(min) into the in vitro intrinsic clearance (in vitro CLint, in μL/min/mg proteins) was done using the following equation (mean of duplicate determinations): […]
(§11) A master solution in the “Incubation Plate” containing phosphate buffer, ultra-pure H2O, MgCl2 solution and liver microsomes was made according to Table 63. The mixture was pre-warmed at 37° C. water bath for 5 minutes.
(§12) 40 μL of 10 mM NADPH solution was added to each well. The final concentration of NADPH was 1 mM. The negative control samples were prepared by replacing NADPH with 40 μL of ultra-pure H2O. Samples were prepared in duplicate. Negative controls were prepared in singlet.
(§13) Conversion of the in vitro t1/2(min) into the in vitro intrinsic clearance (in vitro C Lt, in μL/min/mg proteins) was done using the following equation (mean of duplicate determinations): […]

[2] = Mouse liver microsomes stability; type: in vitro ADME; conditions: mouse liver microsomes; for microsomal CLint at 2 μM / half-life at 2 μM / CLint scaled at 2 μM: male, pooled liver microsomes; for microsomal CLint at 2 μM: mouse, read-out: CLint (μL/min/mg protein); for microsomal CLint at 2 μM / half-life at 2 μM: 2 μM compound, 0.5 mg/mL; for CLint scaled at 2 μM: read-out: Scaled-up CLint
Method: as §1, §2, §3, §4, §5, §6, §7, §8, §9, §10, §11, §12, §13

Compound	half-life at 2 μM [1] [min]	CLint scaled at 2 μM [1] [L/h/kg]	microsomal CLint at 2 μM [1] [µL/min/mg]	Predicted hepatic CL [1] [L/h/kg]	Remaining Percentage (%) ([1]; With Cofactors, 0 min)	Remaining Percentage (%) ([1]; With Cofactors, 30 min)	Remaining Percentage (%) ([1]; With Cofactors, 60 min)	Remaining Percentage (%) ([1]; Without Cofactors, 0 min)	Remaining Percentage (%) ([1]; Without Cofactors, 30 min)	Remaining Percentage (%) ([1]; Without Cofactors, 60 min)	microsomal CLint at 2 μM [2] [µL/min/mg]	half-life at 2 μM [2] [min]	CLint scaled at 2 μM [2] [L/h/kg]	Predicted hepatic CL [2] [L/h/kg]	Remaining Percentage (%) ([2]; With Cofactors, 0 min)	Remaining Percentage (%) ([2]; With Cofactors, 30 min)	Remaining Percentage (%) ([2]; With Cofactors, 60 min)	Remaining Percentage (%) ([2]; Without Cofactors, 0 min)	Remaining Percentage (%) ([2]; Without Cofactors, 30 min)	Remaining Percentage (%) ([2]; Without Cofactors, 60 min)
COc1ccc2[nH]cc(CCN3CC[C@@H](OC)C3)c2c1 [(R) I-66, (R)-5-methoxy-3-(2-(3-methoxypyrrolidin-1-yl)ethyl)-1H-indole]	17.8	8.36	77.7	2.372	100.00	22.22	9.71	100.00	102.61	100.00	14.1	98.5	3.69	2.193	100.00	72.95	65.58	100.00	104.20	100.00
COc1ccc2[nH]cc(CCN3CC[C@@H](OC(F)F)C3)c2c1 [(R) I-67, (R)-3-(2-(3-(Difluoromethoxy)pyrrolidin-1-yl)ethyl)-5-methoxy-1H-indole]	10.5	14.1	132	2.684	100.00	15.35	1.93	100.00	91.21	80.30	57.4	24.1	15.1	3.975	100.00	43.11	17.88	100.00	103.14	109.43
CN(CCOC(F)F)CCc1c[nH]c2ccccc12 [Compound I-130, N-(2-(1H-Indol-3-yl)ethyl)-2-(difluoromethoxy)-N-methylethan-1-amine]	< 4.51	> 33	> 307	>3.01	100.00	0.00	0.00	100.00	105.21	103.65	173	8.03	45.3	4.825	100.00	7.52	0.87	100.00	95.65	104.89
